Laboratory results taken from ChEMBL document CHEMBL1201862, “PubChem BioAssay data set” (2004).
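The compound was tested at five concentrations on cells cultured in 96-well plates, with a 48-hour exposure period. At the GI50, growth is halved.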 Active and inactive are the calls of the source. No stated cut-off is given here; in the data, active = GI50 up to about 1.1 µM and inactive = higher.

Assays:
Assay in all cases: NCI-60 cell line screen, 48 h
SF-295 = system: SF-295
SN12C = system: SN12C
U-251 = system: U-251
NCI-H522 = system: NCI-H522
SF-539 = system: SF-539
RXF 393 = system: RXF 393
NCI-H460 = system: NCI-H460
M14 = system: M14
CCRF-CEM = system: CCRF-CEM
SR = system: SR
SK-OV-3 = system: SK-OV-3
A498 = system: A498
T47D = system: T47D
OVCAR-5 = system: OVCAR-5
HT-29 = system: HT-29
ACHN = system: ACHN
MDA-MB-435 = system: MDA-MB-435
NCI-H23 = system: NCI-H23
SNB-19 = system: SNB-19
BT-549 = system: BT-549

## CN(C)Cc1cc(/N=N/c2ccc(Cl)cc2)ccc1O
SF-295
  GI50: 16.5 µM (inactive)
SN12C
  GI50: 16.9 µM (inactive)
U-251
  GI50: 17.4 µM (inactive)
NCI-H522
  GI50: 13.5 µM (inactive)
SF-539
  GI50: 18.1 µM (inactive)
RXF 393
  GI50: 13.9 µM (inactive)
NCI-H460
  GI50: 13.8 µM (inactive)
M14
  GI50: 9.75 µM (inactive)
CCRF-CEM
  GI50: 17.8 µM (inactive)
SR
  GI50: 16.4 µM (inactive)
SK-OV-3
  GI50: 18.7 µM (inactive)
A498
  GI50: 16.4 µM (inactive)
T47D
  GI50: 12.4 µM (inactive)
OVCAR-5
  GI50: 12.1 µM (inactive)
HT-29
  GI50: 12.6 µM (inactive)
ACHN
  GI50: 15.3 µM (inactive)
MDA-MB-435
  GI50: 16.7 µM (inactive)
NCI-H23
  GI50: 23 µM (inactive)
SNB-19
  GI50: 17.3 µM (inactive)
BT-549
  GI50: 10.7 µM (inactive)

## CC(Cc1cccc2c1Nc1ccccc1S2)N(C)CCO (stereo not given)
SF-295
  GI50: > 100 µM (inactive)
SN12C
  GI50: > 100 µM (inactive)
U-251
  GI50: > 100 µM (inactive)
NCI-H522
  GI50: > 100 µM (inactive)
SF-539
  GI50: > 100 µM (inactive)
RXF 393
  GI50: > 100 µM (inactive)
NCI-H460
  GI50: > 100 µM (inactive)
M14
  GI50: > 100 µM (inactive)
CCRF-CEM
  GI50: > 100 µM (inactive)
SR
  GI50: > 100 µM (inactive)
SK-OV-3
  GI50: > 100 µM (inactive)
A498
  GI50: 26.4 µM (inactive)
T47D
  GI50: > 100 µM (inactive)
OVCAR-5
  GI50: > 100 µM (inactive)
HT-29
  GI50: > 100 µM (inactive)
ACHN
  GI50: > 100 µM (inactive)
MDA-MB-435
  GI50: > 100 µM (inactive)
NCI-H23
  GI50: > 100 µM (inactive)
SNB-19
  GI50: > 100 µM (inactive)
BT-549
  GI50: > 100 µM (inactive)

## O=C(CSc1nc2ccc(I)cc2c(=O)n1Cc1ccccc1)NNC(=O)c1ccccc1
SF-295
  GI50: 11.4 µM (inactive)
SN12C
  GI50: 17.1 µM (inactive)
U-251
  GI50: 28 µM (inactive)
NCI-H522
  GI50: 6.4 µM (inactive)
SF-539
  GI50: 2.92 µM (inactive)
RXF 393
  GI50: 4.73 µM (inactive)
NCI-H460
  GI50: 17.3 µM (inactive)
M14
  GI50: 29.3 µM (inactive)
CCRF-CEM
  GI50: 49.7 µM (inactive)
SR
  GI50: 11.5 µM (inactive)
SK-OV-3
  GI50: 17.2 µM (inactive)
A498
  GI50: 11.6 µM (inactive)
T47D
  GI50: 10.6 µM (inactive)
OVCAR-5
  GI50: 16 µM (inactive)
HT-29
  GI50: 19.8 µM (inactive)
ACHN
  GI50: 17.7 µM (inactive)
MDA-MB-435
  GI50: 35 µM (inactive)
NCI-H23
  GI50: 17.6 µM (inactive)
SNB-19
  GI50: 21.3 µM (inactive)
BT-549
  GI50: 7.31 µM (inactive)

## Cc1ccc(C(=O)N/N=C(\N=N\c2cccc(Cl)c2)c2ccc(N(CCC#N)CCC#N)cc2C)cc1
SF-295
  GI50: > 100 µM (inactive)
SN12C
  GI50: > 100 µM (inactive)
U-251
  GI50: > 100 µM (inactive)
NCI-H522
  GI50: > 100 µM (inactive)
SF-539
  GI50: > 100 µM (inactive)
RXF 393
  GI50: 29.4 µM (inactive)
NCI-H460
  GI50: > 100 µM (inactive)
M14
  GI50: > 100 µM (inactive)
CCRF-CEM
  GI50: 97.1 µM (inactive)
SR
  GI50: > 100 µM (inactive)
SK-OV-3
  GI50: > 100 µM (inactive)
A498
  GI50: > 100 µM (inactive)
T47D
  GI50: 69 µM (inactive)
OVCAR-5
  GI50: > 100 µM (inactive)
HT-29
  GI50: 90.2 µM (inactive)
ACHN
  GI50: > 100 µM (inactive)
MDA-MB-435
  GI50: > 100 µM (inactive)
NCI-H23
  GI50: > 100 µM (inactive)
SNB-19
  GI50: > 100 µM (inactive)
BT-549
  GI50: > 100 µM (inactive)

## COC(=O)/C=C\C(C#N)(C#N)/N=C/c1ccccc1
SF-295
  GI50: 18.7 µM (inactive)
SN12C
  GI50: 11.1 µM (inactive)
U-251
  GI50: 17.7 µM (inactive)
NCI-H522
  GI50: 0.471 µM (active)
SF-539
  GI50: 3.78 µM (inactive)
RXF 393
  GI50: 1.94 µM (inactive)
NCI-H460
  GI50: 18.7 µM (inactive)
M14
  GI50: 2.25 µM (inactive)
CCRF-CEM
  GI50: 0.337 µM (active)
SR
  GI50: 0.897 µM (active)
SK-OV-3
  GI50: 18.3 µM (inactive)
A498
  GI50: 18.7 µM (inactive)
T47D
  GI50: 1.72 µM (inactive)
OVCAR-5
  GI50: 19 µM (inactive)
HT-29
  GI50: 4.49 µM (inactive)
ACHN
  GI50: 2.3 µM (inactive)
MDA-MB-435
  GI50: 2.33 µM (inactive)
NCI-H23
  GI50: 7.35 µM (inactive)
SNB-19
  GI50: 23.9 µM (inactive)
BT-549
  GI50: 5.2 µM (inactive)
